Values joined by “and” are separate entries in the source; they are usually repeats but may differ in a detail not shown here. Identical values can stand only once. Toxic doses and inconclusive results are not listed.
System: P388 leukemia ip, CD2F1 mice, survival T/C
Test: NCI In Vivo Anticancer Drug Screen. Data for tumor model P388 Leukemia (intraperitoneal) in CD2F1 (CDF1) mice
Conditions: endpoint: median survival time, higher = longer survival
Procedure, shortened: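 Mice carrying the transplanted tumor received test compound or vehicle. Survival was recorded in each group, and the value is the treated-group measurement divided by that of the vehicle-treated control group.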

[1] = dose: 50.0 mg/kg/injection, schedule: Q01DX009 (ip), vehicle: saline with Tween-80
[2] = dose: 100.0 mg/kg/injection, schedule: Q01DX009 (ip), vehicle: saline with Tween-80
[3] = dose: 200.0 mg/kg/injection, schedule: Q01DX009 (ip), vehicle: saline with Tween-80
[4] = dose: 12.5 mg/kg/injection, schedule: Q01DX009 (ip), vehicle: Klucel (hydroxypropylcellulose) (HPC)
[5] = dose: 50.0 mg/kg/injection, schedule: Q01DX009 (ip), vehicle: Klucel (hydroxypropylcellulose) (HPC)
[6] = dose: 50.0 mg/kg/injection, schedule: Q01DX005 (ip), vehicle: Klucel (hydroxypropylcellulose) (HPC)
[7] = dose: 100.0 mg/kg/injection, schedule: Q01DX005 (ip), vehicle: Klucel (hydroxypropylcellulose) (HPC)
[8] = dose: 200.0 mg/kg/injection, schedule: Q01DX005 (ip), vehicle: Klucel (hydroxypropylcellulose) (HPC)
[9] = dose: 12.5 mg/kg/injection, schedule: Q01DX009 (ip), vehicle: saline
[10] = dose: 25.0 mg/kg/injection, schedule: Q01DX009 (ip), vehicle: saline
[11] = dose: 100.0 mg/kg/injection, schedule: Q01DX009 (ip), vehicle: Klucel (hydroxypropylcellulose) (HPC)
[12] = dose: 200.0 mg/kg/injection, schedule: Q01DX009 (ip), vehicle: Klucel (hydroxypropylcellulose) (HPC)
[13] = dose: 50.0 mg/kg/injection, schedule: Q01DX005 (ip), vehicle: saline with Tween-80
[14] = dose: 100.0 mg/kg/injection, schedule: Q01DX005 (ip), vehicle: saline with Tween-80
[15] = dose: 200.0 mg/kg/injection, schedule: Q01DX005 (ip), vehicle: saline with Tween-80
[16] = dose: 60.0 mg/kg/injection, schedule: Q01DX005 (ip), vehicle: saline with Tween-80

For `OC1c2cc(Cl)cc(Cl)c2OC2(N3CCCC3)CCCCC12` (configuration not stated), the T/C [1] was 100 % of control, the T/C [2] was 96 % of control and the T/C [3] was 102 % of control.

With `CSc1nc(Cl)cc(Sc2nc(N)nc3nc[nH]c23)n1` the T/C [4] was 98 % of control, the T/C (dose: 25.0 mg/kg/injection, schedule: Q01DX009 (ip), vehicle: Klucel (hydroxypropylcellulose) (HPC)) was 101 % of control and 107 % of control and the T/C [5] was 123 % of control and 124 % of control.

In the case of `O=C1c2c(-c3ccccc3)ccc(-c3ccccc3)c2C2(O)OC1(O)c1c(-c3ccccc3)ccc(-c3ccccc3)c1C2=O`, the T/C [6] is reported as 94 % of control, the T/C [7] is reported as 90 % of control and the T/C [8] is reported as 92 % of control.

With `Cn1ccnc1Sc1ccccn1` the T/C (dose: 60.0 mg/kg/injection, schedule: Q01DX005 (ip), vehicle: saline) was 104 % of control, the T/C (dose: 120.0 mg/kg/injection, schedule: Q01DX005 (ip), vehicle: saline) was 107 % of control and the T/C (dose: 240.0 mg/kg/injection, schedule: Q01DX005 (ip), vehicle: saline) was 89 % of control.

With `O=C(CBr)C1(Br)CCN(Cc2ccccc2)CC1` the T/C (dose: 3.13 mg/kg/injection, schedule: Q01DX009 (ip), vehicle: Klucel (hydroxypropylcellulose) (HPC)) was 109 % of control, the T/C (dose: 6.25 mg/kg/injection, schedule: Q01DX009 (ip), vehicle: Klucel (hydroxypropylcellulose) (HPC)) was 115 % of control and the T/C [4] was 109 % of control.

`CN1ON(c2ccc(Cl)c(Cl)c2)OC1=O` was tested, and the T/C [9] was 103 % of control, the T/C [10] was 105 % of control and the T/C (dose: 50.0 mg/kg/injection, schedule: Q01DX009 (ip), vehicle: saline) was 104 % of control and 109 % of control.

`COc1ccccc1/C=N\NC(=O)C(=O)N/N=C\c1ccccc1OC` was tested, and the T/C [5] was 86 % of control, the T/C [11] was 90 % of control and the T/C [12] was 98 % of control.

`Nc1ccc(S(=O)(=O)Nc2cnc3c(Cl)cccc3n2)cc1` was tested, and the T/C (dose: 50.0 mg/kg/injection, schedule: Q01DX005 (ip), vehicle: DMSO) was 98 % of control and 99 % of control, the T/C [6] was 108 % of control and the T/C (dose: 100.0 mg/kg/injection, schedule: Q01DX005 (ip), vehicle: DMSO) was 108 % of control and 116 % of control. For the same compound, the T/C [7] was 106 % of control, the T/C (dose: 200.0 mg/kg/injection, schedule: Q01DX005 (ip), vehicle: DMSO) was 121 % of control and the T/C [8] was 111 % of control. The T/C (dose: 400.0 mg/kg/injection, schedule: Q01DX005 (ip), vehicle: DMSO) was 120 % of control.

`Cc1ccc(NC(=O)Oc2ccc(C(C)(C)C)cc2Br)c([N+](=O)[O-])c1` was tested, and the T/C [1] was 96 % of control, the T/C [2] was 97 % of control and the T/C [3] was 101 % of control.

`C(=C\c1cc2ccc(C3=NCCN3)cc2[nH]1)/c1ccc2cc(C3=NCCN3)[nH]c2c1` was tested, and the T/C (dose: 12.5 mg/kg/injection, schedule: Q01DX005 (ip), vehicle: Klucel (hydroxypropylcellulose) (HPC)) was 105 % of control, the T/C (dose: 25.0 mg/kg/injection, schedule: Q01DX005 (ip), vehicle: Klucel (hydroxypropylcellulose) (HPC)) was 110 % of control and the T/C [6] was 108 % of control and 110 % of control.

In the case of `O=C(O)c1cccc(/C=C/c2ccccc2)c1`, the T/C [13] is reported as 107 % of control, the T/C [14] is reported as 105 % of control and the T/C [15] is reported as 114 % of control.

With `CN=C1CN=C(OP(=O)(N2CCOCC2)N2CCOCC2)c2cc(Cl)ccc2N1` the T/C [5] was 98 % of control, the T/C [11] was 101 % of control and the T/C [12] was 100 % of control.

With `C[n+]1c2ccccc2c(Oc2c3ccccc3[n+](C)c3ccccc23)c2ccccc21` the T/C (dose: 60.0 mg/kg/injection, schedule: Q01DX005 (ip), vehicle: Klucel (hydroxypropylcellulose) (HPC)) was 91 % of control, the T/C (dose: 120.0 mg/kg/injection, schedule: Q01DX005 (ip), vehicle: Klucel (hydroxypropylcellulose) (HPC)) was 93 % of control and the T/C (dose: 240.0 mg/kg/injection, schedule: Q01DX005 (ip), vehicle: Klucel (hydroxypropylcellulose) (HPC)) was 100 % of control.

`CC(Sc1ccccc1)C(=O)N1CCCC1` (configuration not stated) was tested, and the T/C [1] was 106 % of control, the T/C [2] was 103 % of control and the T/C [3] was 105 % of control.

For `Cc1ccc(-n2c(N)c(C#N)c3c(c2=S)CCC3)cc1`, the T/C (dose: 50.0 mg/kg/injection, schedule: Q01DX005 (ip), vehicle: Klucel + Tween-80) was 100 % of control, the T/C (dose: 100.0 mg/kg/injection, schedule: Q01DX005 (ip), vehicle: Klucel + Tween-80) was 107 % of control and the T/C (dose: 200.0 mg/kg/injection, schedule: Q01DX005 (ip), vehicle: Klucel + Tween-80) was 96 % of control.

For `CCCCCC(C[N+](C)(C)C)C(=O)/C=C/c1ccc(Cl)c(Cl)c1` (configuration not stated), the T/C (dose: 3.12 mg/kg/injection, schedule: Q01DX009 (ip), vehicle: saline with Tween-80) was 105 % of control, the T/C (dose: 6.25 mg/kg/injection, schedule: Q01DX009 (ip), vehicle: saline with Tween-80) was 120 % of control and the T/C (dose: 6.25 mg/kg/injection, schedule: Q01DX009 (ip), vehicle: saline) was 114 % of control. For the same compound, the T/C (dose: 12.5 mg/kg/injection, schedule: Q01DX009 (ip), vehicle: saline with Tween-80) was 101 % of control, the T/C [9] was 114 % of control and 124 % of control and the T/C (dose: 25.0 mg/kg/injection, schedule: Q01DX009 (ip), vehicle: saline with Tween-80) was 111 % of control. The T/C [10] was 110 % of control.

`Cc1nnc2c3nccnc3c(Cl)nn12` was tested, and the T/C (dose: 15.0 mg/kg/injection, schedule: Q01DX005 (ip), vehicle: saline with Tween-80) was 105 % of control, the T/C (dose: 30.0 mg/kg/injection, schedule: Q01DX005 (ip), vehicle: saline with Tween-80) was 112 % of control and the T/C [16] was 102 % of control and 105 % of control.

In the case of `C#CC(C)(O)C(O)c1ccccc1` (configuration not stated), the T/C [1] is reported as 98 % of control, the T/C [2] is reported as 109 % of control and the T/C [3] is reported as 96 % of control.

`CC(C)N(C(C)C)C(C(=O)OCC(O)C(O)C(O)C(O)C(=O)O)N(C(C)C)C(C)C` (configuration not stated) was tested, and the T/C [5] was 113 % of control, the T/C [11] was 97 % of control and the T/C [12] was 111 % of control.

With `Nc1nc(-c2cc(-c3cccc([N+](=O)[O-])c3Cl)nc(N)n2)cc(-c2cccc([N+](=O)[O-])c2Cl)n1` the T/C [16] was 105 % of control, the T/C (dose: 120.0 mg/kg/injection, schedule: Q01DX005 (ip), vehicle: saline with Tween-80) was 101 % of control and the T/C (dose: 240.0 mg/kg/injection, schedule: Q01DX005 (ip), vehicle: saline with Tween-80) was 100 % of control.

For `COC1=C(C)C(=O)C2=C(C1=O)C(CO)N1C(C#N)C3CC4C(C1C2N1CCOC41)N3C` (configuration not stated), the T/C (dose: 0.15 mg/kg/injection, schedule: Q01DX005 (ip), vehicle: acid diluted with saline) was 111 % of control and 117 % of control, the T/C (dose: 0.3 mg/kg/injection, schedule: Q01DX005 (ip), vehicle: acid diluted with saline) was 113 % of control and the T/C (dose: 0.4 mg/kg/injection, schedule: Q01DX005 (ip), vehicle: saline + alcohol) was 152 % of control. The T/C (dose: 0.6 mg/kg/injection, schedule: Q01DX005 (ip), vehicle: acid diluted with saline) was 123 % of control and the T/C (dose: 0.8 mg/kg/injection, schedule: Q01DX005 (ip), vehicle: saline + alcohol) was 154 % of control.

With `CCn1c2nc(=O)n(C)c(=O)c-2[n+]([O-])c2cc(Br)ccc21` the T/C (dose: 6.25 mg/kg/injection, schedule: Q04DX002 (ip), vehicle: saline with Tween-80) was 100 % of control, the T/C (dose: 12.5 mg/kg/injection, schedule: Q04DX002 (ip), vehicle: saline with Tween-80) was 96 % of control and the T/C (dose: 25.0 mg/kg/injection, schedule: Q04DX002 (ip), vehicle: saline with Tween-80) was 89 % of control and 92 % of control.

For `CSc1ccc2ns[s+]c2c1`, the T/C [13] was 104 % of control, the T/C [14] was 102 % of control and the T/C [15] was 101 % of control.

In the case of `CCOc1ccc(N=NC2C(=O)N(c3cccc(Cl)c3Cl)C(=S)N(c3ccccc3)C2O)cc1` (configuration not stated), the T/C (dose: 100.0 mg/kg/injection, schedule: Q01DX001 (ip), vehicle: Klucel (hydroxypropylcellulose) (HPC)) is reported as 99 % of control, the T/C (dose: 200.0 mg/kg/injection, schedule: Q01DX001 (ip), vehicle: Klucel (hydroxypropylcellulose) (HPC)) is reported as 100 % of control and the T/C (dose: 400.0 mg/kg/injection, schedule: Q01DX001 (ip), vehicle: Klucel (hydroxypropylcellulose) (HPC)) is reported as 97 % of control.

In the case of `COC(=O)c1cc(O)c2c(c1C(=O)OC)C[C@H]1[C@@H]3CC=C4C[C@@H](O)CC[C@]4(C)[C@H]3CC[C@]21C`, the T/C [13] is reported as 97 % of control, the T/C [14] is reported as 87 % of control and the T/C [15] is reported as 87 % of control.

For `Cc1nccc2cccc(CNC(C)C)c12`, the T/C (dose: 100.0 mg/kg/injection, schedule: Q01DX001 (ip), vehicle: saline) was 103 % of control and the T/C (dose: 200.0 mg/kg/injection, schedule: Q01DX001 (ip), vehicle: saline) was 100 % of control.

— PubChem BioAssay AID330 (DTP/NCI, 2004)
